Data published in ChEMBL document CHEMBL3885861, “Open TG-GATES”.

Species: Rattus norvegicus
Assay: Open TG-GATES - Regimen: Daily Repeat
Assay type: toxicity, organism-based, Sprague-Dawley
Set-up: regimen Daily Repeat, gender Male, age 6 weeks
Conditions: in vivo, po, 0 mg/kg, route gavage, dose level Control; for APTT / Bas / Eos / Fbg / Hb / Ht / Lym / MCH / MCHC / MCV / Mono / Neu / PT / Plat / RBC / Ret / WBC: tissue Blood; for KIDNEY_TOTAL: tissue Kidney; for LIVER: tissue Liver; for A/G / ALP / ALT / AST / BUN / CRE / Ca / Cl / DBIL / GLC / IP / K / LDH / Na / PL / RALB / TBIL / TC / TG / TP / gamma-GTP: tissue Plasma

Work on `CN(CCOc1ccc(CC2SC(=O)NC2=O)cc1)c1ccccn1.O=C(O)/C=C\C(=O)O` (centres undefined) [ROSIGLITAZONE MALEATE] yielded a TERMINAL_BW (72 h, time 3 day) of 242.8 g, an APTT (72 h, time 3 day) of 15.5 s and a Bas (72 h, time 3 day) of 0%. The Eos (72 h, time 3 day) was 1.2%, the Fbg (72 h, time 3 day) was 236.8 mg/dL and the Hb (72 h, time 3 day) was 13 g/dL. The Ht (72 h, time 3 day) was 39.2%, the Lym (72 h, time 3 day) was 76.6% and the MCH (72 h, time 3 day) was 21.1 pg. For the same compound, the MCHC (72 h, time 3 day) was 33%, the MCV (72 h, time 3 day) was 63.9 fL and the Mono (72 h, time 3 day) was 5.2%. The Neu (72 h, time 3 day) was 17.4%, the PT (72 h, time 3 day) was 11.5 s and the Plat (72 h, time 3 day) was 136 x10_4/uL. The RBC (72 h, time 3 day) was 615.6 x10_4/ul, the Ret (72 h, time 3 day) was 6.6% and the WBC (72 h, time 3 day) was 98 x10_2/uL. For the same compound, the KIDNEY_TOTAL (72 h, time 3 day) was 0.8 g, the LIVER (72 h, time 3 day) was 12.6 g and the A/G (72 h, time 3 day) was 2.2. The ALP (72 h, time 3 day) was 1243.6 IU/L, the ALT (72 h, time 3 day) was 35.6 IU/L and the AST (72 h, time 3 day) was 62.6 IU/L. The BUN (72 h, time 3 day) was 14.8 mg/dL, the CRE (72 h, time 3 day) was 0.2 mg/dL and the Ca (72 h, time 3 day) was 11.7 mg/dL. It also gave a Cl (72 h, time 3 day) of 104.2 meq/L, a DBIL (72 h, time 3 day) of 0.014 mg/dL and a GLC (72 h, time 3 day) of 197.6 mg/dL. For the same compound, the IP (72 h, time 3 day) was 6.9 mg/dL, the K (72 h, time 3 day) was 4.7 meq/L and the LDH (72 h, time 3 day) was 96.2 IU/L. For the same compound, the Na (72 h, time 3 day) was 140.4 meq/L, the PL (72 h, time 3 day) was 154.8 mg/dL and the RALB (72 h, time 3 day) was 3.9 g/dL. It also gave a TBIL (72 h, time 3 day) of 0.04 mg/dL, a TC (72 h, time 3 day) of 83.4 mg/dL and a TG (72 h, time 3 day) of 105.8 mg/dL. It also gave a TP (72 h, time 3 day) of 5.8 g/dL, a gamma-GTP (72 h, time 3 day) of 0.2 IU/L and a TERMINAL_BW ([…], time 7 day) of 274.1 g. For the same compound, the TERMINAL_BW ([…], time 14 day) was 332.1 g, the TERMINAL_BW ([…], time 28 day) was 412.9 g and the APTT ([…], time 7 day) was 16.1 s. The Bas ([…], time 7 day) was 0%, the Eos ([…], time 7 day) was 1% and the Fbg ([…], time 7 day) was 242.4 mg/dL. It also gave a Hb ([…], time 7 day) of 13.4 g/dL, a Ht ([…], time 7 day) of 40.5% and a Lym ([…], time 7 day) of 82%. The MCH ([…], time 7 day) was 20.8 pg, the MCHC ([…], time 7 day) was 33% and the MCV ([…], time 7 day) was 63 fL. It also gave a Mono ([…], time 7 day) of 4.4%, a Neu ([…], time 7 day) of 12.8% and a PT ([…], time 7 day) of 11.7 s. The Plat ([…], time 7 day) was 134.6 x10_4/uL, the RBC ([…], time 7 day) was 643.8 x10_4/ul and the Ret ([…], time 7 day) was 4.6%. The WBC ([…], time 7 day) was 98.6 x10_2/uL, the APTT ([…], time 14 day) was 15.7 s and the Bas ([…], time 14 day) was 0%. For the same compound, the Eos ([…], time 14 day) was 1%, the Fbg ([…], time 14 day) was 247.4 mg/dL and the Hb ([…], time 14 day) was 14 g/dL. It also gave a Ht ([…], time 14 day) of 42.3%, a Lym ([…], time 14 day) of 74.4% and an MCH ([…], time 14 day) of 20.6 pg. It also gave an MCHC ([…], time 14 day) of 33%, an MCV ([…], time 14 day) of 62.2 fL and a Mono ([…], time 14 day) of 6%. For the same compound, the Neu ([…], time 14 day) was 18.6%, the PT ([…], time 14 day) was 11.5 s and the Plat ([…], time 14 day) was 126.2 x10_4/uL. The RBC ([…], time 14 day) was 680.2 x10_4/ul, the Ret ([…], time 14 day) was 3.6% and the WBC ([…], time 14 day) was 124.2 x10_2/uL. For the same compound, the APTT ([…], time 28 day) was 16 s, the Bas ([…], time 28 day) was 0% and the Eos ([…], time 28 day) was 1%. For the same compound, the Fbg ([…], time 28 day) was 242.4 mg/dL, the Hb ([…], time 28 day) was 14.6 g/dL and the Ht ([…], time 28 day) was 44%. The Lym ([…], time 28 day) was 75.2%, the MCH ([…], time 28 day) was 19.5 pg and the MCHC ([…], time 28 day) was 33.2%. It also gave an MCV ([…], time 28 day) of 58.9 fL, a Mono ([…], time 28 day) of 7.6% and a Neu ([…], time 28 day) of 16.4%. For the same compound, the PT ([…], time 28 day) was 11.7 s, the Plat ([…], time 28 day) was 120.2 x10_4/uL and the RBC ([…], time 28 day) was 747.6 x10_4/ul. The Ret ([…], time 28 day) was 2.6%, the WBC ([…], time 28 day) was 114.8 x10_2/uL and the KIDNEY_TOTAL ([…], time 7 day) was 0.7 g. For the same compound, the KIDNEY_TOTAL ([…], time 14 day) was 0.9 g, the KIDNEY_TOTAL ([…], time 28 day) was 0.9 g and the LIVER ([…], time 7 day) was 12.9 g. It also gave an LIVER ([…], time 14 day) of 15.7 g, an LIVER ([…], time 28 day) of 17.1 g and an A/G ([…], time 7 day) of 2. It also gave an ALP ([…], time 7 day) of 1306.8 IU/L, an ALT ([…], time 7 day) of 33.2 IU/L and an AST ([…], time 7 day) of 58.8 IU/L. The BUN ([…], time 7 day) was 18.2 mg/dL, the CRE ([…], time 7 day) was 0.5 mg/dL and the Ca ([…], time 7 day) was 19.5 mg/dL. For the same compound, the Cl ([…], time 7 day) was 104.8 meq/L, the DBIL ([…], time 7 day) was 0.01 mg/dL and the GLC ([…], time 7 day) was 181.4 mg/dL. It also gave an IP ([…], time 7 day) of 7.1 mg/dL, a K ([…], time 7 day) of 4.5 meq/L and an LDH ([…], time 7 day) of 79 IU/L. The Na ([…], time 7 day) was 140 meq/L, the PL ([…], time 7 day) was 148.6 mg/dL and the RALB ([…], time 7 day) was 3.8 g/dL. The TBIL ([…], time 7 day) was 0.028 mg/dL, the TC ([…], time 7 day) was 76.6 mg/dL and the TG ([…], time 7 day) was 138.8 mg/dL. It also gave a TP ([…], time 7 day) of 5.7 g/dL, a gamma-GTP ([…], time 7 day) of 0.2 IU/L and an A/G ([…], time 14 day) of 2.1. For the same compound, the ALP ([…], time 14 day) was 1411 IU/L, the ALT ([…], time 14 day) was 32.8 IU/L and the AST ([…], time 14 day) was 62.4 IU/L. It also gave a BUN ([…], time 14 day) of 19 mg/dL, a CRE ([…], time 14 day) of 0.4 mg/dL and a Ca ([…], time 14 day) of 11.1 mg/dL. For the same compound, the Cl ([…], time 14 day) was 106 meq/L, the DBIL ([…], time 14 day) was 0.01 mg/dL and the GLC ([…], time 14 day) was 186.4 mg/dL. For the same compound, the IP ([…], time 14 day) was 7.2 mg/dL, the K ([…], time 14 day) was 4.5 meq/L and the LDH ([…], time 14 day) was 65 IU/L. The Na ([…], time 14 day) was 143 meq/L, the PL ([…], time 14 day) was 159.4 mg/dL and the RALB ([…], time 14 day) was 3.9 g/dL. The TBIL ([…], time 14 day) was 0.036 mg/dL, the TC ([…], time 14 day) was 76.4 mg/dL and the TG ([…], time 14 day) was 186.4 mg/dL. The TP ([…], time 14 day) was 5.8 g/dL, the gamma-GTP ([…], time 14 day) was 1 IU/L and the A/G ([…], time 28 day) was 1.9. For the same compound, the ALP ([…], time 28 day) was 1035.6 IU/L, the ALT ([…], time 28 day) was 29.2 IU/L and the AST ([…], time 28 day) was 55 IU/L. It also gave a BUN ([…], time 28 day) of 18.4 mg/dL, a CRE ([…], time 28 day) of 0.4 mg/dL and a Ca ([…], time 28 day) of 10.7 mg/dL. The Cl ([…], time 28 day) was 105 meq/L, the DBIL ([…], time 28 day) was 0.012 mg/dL and the GLC ([…], time 28 day) was 183 mg/dL. For the same compound, the IP ([…], time 28 day) was 6.1 mg/dL, the K ([…], time 28 day) was 4.4 meq/L and the LDH ([…], time 28 day) was 68.8 IU/L. For the same compound, the Na ([…], time 28 day) was 139.8 meq/L, the PL ([…], time 28 day) was 144.8 mg/dL and the RALB ([…], time 28 day) was 3.9 g/dL. It also gave a TBIL ([…], time 28 day) of 0.036 mg/dL, a TC ([…], time 28 day) of 73.2 mg/dL and a TG ([…], time 28 day) of 162 mg/dL. It also gave a TP ([…], time 28 day) of 5.9 g/dL and a gamma-GTP ([…], time 28 day) of 0.4 IU/L.
